Assay results from patent US9890166B2, “Imidazopyrrolidine derivatives and their use in the treatment of disease” (NOVARTIS AG, priority 2013, dated 2018).

Columns and labels:
MV-4-11 cells = assay: Cell growth inhibition assay (CellTiter-Glo), MV-4-11; conditions: for GI50: Homo sapiens, MV4-11, read-out: MV-4-11 GI50; for MV-4-11 TGI: MV-4-11 cells, total growth inhibition, CellTiter-Glo;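 on all read-outs here: cellular ATP luminescence after 4 days, 3-fold dilution series from 10 µM top dose, vehicle (0.1% DMSO) set to 100%, cell-free medium set to −100%, day 0 corrected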
BRD4 (His-Brd4(44-477)) = BRD4 (His-Brd4(44-477)) (Homo sapiens (Human), UniProt O60885); assay: TR-FRET in-vitro binding assay for BRD4; conditions: single determination or n ≧ 2 independent determinations, read-out: Biochemical IC50 BRD4
Outline: (§1)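 In this TR-FRET format, each compound was tested as an 8-point dilution series, single point per concentration, dispensed from 90% DMSO solution. Incubation lasted 35 minutes at 30° C.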

[1] = target: CREBBP bromodomain (His-CREBBP(1081-1197)) (Homo sapiens (Human), UniProt Q92793); assay: AlphaScreen in-vitro binding assay for CREBBP; conditions: single determination or n ≧ 2 independent determinations, read-out: Biochemical IC50 CREBBP
Chain of CREBBP bromodomain (His-CREBBP(1081-1197)) (Q92793 1081-1197): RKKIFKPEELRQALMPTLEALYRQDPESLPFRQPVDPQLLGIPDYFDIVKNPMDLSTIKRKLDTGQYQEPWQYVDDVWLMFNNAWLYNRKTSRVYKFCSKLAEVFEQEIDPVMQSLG
Outline: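 Detection used nickel-chelate acceptor plus streptavidin donor AlphaScreen beads, 1 h room temperature. Percent inhibition fitted by non-linear regression to IC50.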

K-562 cells = assay: Cell growth inhibition assay (CellTiter-Glo), K-562; conditions: for GI50: Homo sapiens, K562, read-out: K-562 GI50; for K-562 TGI: K-562 cells, total growth inhibition, CellTiter-Glo;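 on all read-outs here: cellular ATP measured by luminescence after 4 days of exposure, 3-fold dilution series from 10 µM, DMSO vehicle-treated cells define 100%, cell-free medium wells −100%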
BRD3 (His-Brd3(20-477)) = BRD3 (His-Brd3(20-477)) (Homo sapiens (Human), UniProt Q15059); assay: TR-FRET in-vitro binding assay for BRD3; conditions: single determination or n ≧ 2 independent determinations, read-out: Biochemical IC50 BRD3
Chain of BRD3 (His-Brd3(20-477)) (Q15059 20-477): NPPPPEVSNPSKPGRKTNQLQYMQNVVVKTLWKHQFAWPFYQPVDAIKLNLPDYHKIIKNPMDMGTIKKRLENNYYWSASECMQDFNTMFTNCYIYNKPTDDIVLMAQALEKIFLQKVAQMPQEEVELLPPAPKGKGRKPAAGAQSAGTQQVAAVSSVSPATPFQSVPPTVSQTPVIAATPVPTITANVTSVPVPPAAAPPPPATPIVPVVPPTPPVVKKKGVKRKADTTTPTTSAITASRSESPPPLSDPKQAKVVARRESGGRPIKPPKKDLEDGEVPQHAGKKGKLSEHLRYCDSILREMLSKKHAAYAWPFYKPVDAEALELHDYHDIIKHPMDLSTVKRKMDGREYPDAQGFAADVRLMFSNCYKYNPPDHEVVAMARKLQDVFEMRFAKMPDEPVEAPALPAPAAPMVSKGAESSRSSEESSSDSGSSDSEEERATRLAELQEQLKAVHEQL
Outline: as §1

BRD2 (His-Brd2(60-472)) = BRD2 (His-Brd2(60-472)) (Homo sapiens (Human), UniProt P25440); assay: TR-FRET in-vitro binding assay for BRD2; conditions: single determination or n ≧ 2 independent determinations, read-out: Biochemical IC50 BRD2
Chain of BRD2 (His-Brd2(60-472)) (P25440 60-472): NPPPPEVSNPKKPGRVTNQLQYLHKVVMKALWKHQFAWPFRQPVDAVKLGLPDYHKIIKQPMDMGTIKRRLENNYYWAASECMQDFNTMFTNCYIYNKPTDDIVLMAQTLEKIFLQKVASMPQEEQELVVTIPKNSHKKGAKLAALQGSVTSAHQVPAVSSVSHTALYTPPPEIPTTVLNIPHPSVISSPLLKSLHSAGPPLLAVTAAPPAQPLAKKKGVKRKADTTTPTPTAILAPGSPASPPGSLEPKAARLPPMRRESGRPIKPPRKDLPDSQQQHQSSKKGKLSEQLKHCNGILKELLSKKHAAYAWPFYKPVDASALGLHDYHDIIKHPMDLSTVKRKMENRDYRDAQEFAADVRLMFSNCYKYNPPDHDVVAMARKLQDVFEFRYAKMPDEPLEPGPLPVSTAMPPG
Outline: as §1

THP-1 cells = assay: Cell growth inhibition assay (CellTiter-Glo), THP-1; conditions: for GI50: Homo sapiens, THP-1, read-out: THP-1 GI50; for THP-1 TGI: THP-1 cells, total growth inhibition, CellTiter-Glo;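 on all read-outs here: viability read as cellular ATP luminescence after 4 days, 3-fold dilution series from 10 µM, DMSO vehicle-treated cells taken as 100%, cell-free medium wells as −100%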

| Structure (SMILES) | GI50 (MV-4-11 cells) | MV-4-11 TGI (MV-4-11 cells) | IC50 (BRD4 (His-Brd4(44-477))) | IC50 [1] | GI50 (K-562 cells) | K-562 TGI (K-562 cells) | IC50 (BRD3 (His-Brd3(20-477))) | IC50 (BRD2 (His-Brd2(60-472))) | GI50 (THP-1 cells) | THP-1 TGI (THP-1 cells) |
| --- | --- | --- | --- | --- | --- | --- | --- | --- | --- | --- |
| Cc1cc(N2C(=O)c3nc(C4=CCOCC4)n(C(C)C)c3C2c2ccc(Cl)cc2)cc2c1nnn2C (centres unmarked) [Example 79, 6-(4-chlorophenyl)-2-(3,6-dihydro-2H-pyran-4-yl)-5-(1,4-dimethyl-1H-benzo[d][1,2,3]triazol-6-yl)-1-isopropyl-5,6-dihydropyrrolo[3,4-d]imidazol-4(1H)-one] | 5.58 nM | 11.1 nM | 26 nM | 3400 nM | 29.6 nM | >10000 nM | 21.5 nM | 46 nM | 7.92 nM | 17.9 nM |
| Cc1cc(N2C(=O)c3nc(C4CCOCC4)n(C(C)C)c3C2c2ccc(Cl)cc2)cc2c1nnn2C (centres unmarked) [Example 80, 6-(4-chlorophenyl)-5-(1,4-dimethyl-1H-benzo[d][1,2,3]triazol-6-yl)-1-isopropyl-2-(tetrahydro-2H-pyran-4-yl)-5,6-dihydropyrrolo[3,4-d]imidazol-4(1H)-one] | 4.14 nM | 9.45 nM | 13 nM | 1450 nM | 28.8 nM | >10000 nM | 12 nM | 17 nM | 5.53 nM | 15.4 nM |
| Cc1cc(N2C(=O)c3nc(C4=CCOCC4)n(C(C)C)c3[C@H]2c2ccc(Cl)cc2)cc2c1nnn2C [Example 81, (R)-6-(4-chlorophenyl)-2-(3,6-dihydro-2H-pyran-4-yl)-5-(1,4-dimethyl-1H-benzo[d][1,2,3]triazol-6-yl)-1-isopropyl-5,6-dihydropyrrolo[3,4-d]imidazol-4(1H)-one] | 3.42 nM | 5.405 nM | < 11 nM | 1500 nM | 19.5 nM | >10000 nM | < 11 nM | < 11 nM | 3.82 nM | 10.7 nM |
| Cc1cc(N2C(=O)c3nc(C4CCOCC4)n(C(C)C)c3[C@H]2c2ccc(Cl)cc2)cc2c1nnn2C [Example 82, (R)-6-(4-chlorophenyl)-5-(1,4-dimethyl-1H-benzo[d][1,2,3]triazol-6-yl)-1-isopropyl-2-(tetrahydro-2H-pyran-4-yl)-5,6-dihydropyrrolo[3,4-d]imidazol-4(1H)-one] | 1.57 nM | 6.03 nM | < 11 nM | 1080 nM | 8.96 nM | >10000 nM | < 11 nM | 13 nM | 2.54 nM | 9.82 nM |
| COc1ccc(-c2nc3c(n2C(C)C)C(c2ccc(Cl)cc2)N(c2cc(C)c4nnn(C)c4c2)C3=O)cn1 (centres unmarked) [Example 83, 6-(4-chlorophenyl)-5-(1,4-dimethyl-1H-benzo[d][1,2,3]triazol-6-yl)-1-isopropyl-2-(6-methoxypyridin-3-yl)-5,6-dihydropyrrolo[3,4-d]imidazol-4(1H)-one] | 23.9 nM | 46.4 nM | 24 nM | > 37000 nM | 105 nM | >10000 nM | 30 nM | 65 nM | 27.1 nM | 72.2 nM |
| Cc1cc(N2C(=O)c3nc(C4=CCOCC4)n(C(C)C)c3[C@H]2c2ccc(Cl)cc2)cn2c(C)nnc12 [Example 84, (R)-6-(4-chlorophenyl)-2-(3,6-dihydro-2H-pyran-4-yl)-5-(3,8-dimethyl-[1,2,4]triazolo[4,3-a]pyridin-6-yl)-1-isopropyl-5,6-dihydropyrrolo[3,4-d]imidazol-4(1H)-one] | 14.6 nM | 29.4 nM | 18 nM | 3500 nM | 73.2 nM | >10000 nM | 24 nM | 36 nM | 44 nM | 99.8 nM |
| Cc1cc(N2C(=O)c3nc(C4=CCCN(C)C4)n(C(C)C)c3[C@H]2c2ccc(Cl)cc2)cn2c(C)nnc12 [Example 85] | 16.3 nM | 32.5 nM | 15 nM | 3650 nM | 277 nM | >10000 nM | 20 nM | 29 nM | 138 nM | 370 nM |
| Cc1cc(N2C(=O)c3nc(C4CCOCC4)n(C(C)C)c3C2c2ccc(Cl)cc2)cn2c(C)nnc12 (centres unmarked) [Example 86, 6-(4-chlorophenyl)-5-(3,8-dimethyl-[1,2,4]triazolo[4,3-a]pyridin-6-yl)-1-isopropyl-2-(tetrahydro-2H-pyran-4-yl)-5,6-dihydropyrrolo[3,4-d]imidazol-4(1H)-one] | 20.8 nM | 43 nM | < 11 nM | 3800 nM | 250 nM | >10000 nM | < 11 nM | 19 nM | 57 nM | 155 nM |
| Cc1cc(N2C(=O)c3nc(C4CCOCC4)n(C(C)C)c3[C@H]2c2ccc(Cl)cc2)cn2c(C)nnc12 [Example 87, (R)-6-(4-chlorophenyl)-5-(3,8-dimethyl-[1,2,4]triazolo[4,3-a]pyridin-6-yl)-1-isopropyl-2-(tetrahydro-2H-pyran-4-yl)-5,6-dihydropyrrolo[3,4-d]imidazol-4(1H)-one] | 8.54 nM | 14.45 nM | 14 nM | 1800 nM | 166 nM | >10000 nM | 14 nM | 25 nM | 27.6 nM | 79.2 nM |
| Cc1cc(N2C(=O)c3nc(C4=CCOCC4)n(C(C)C)c3C2c2ccc(Cl)cc2)cn2c(CF)nnc12 (centres unmarked) [Example 88, 6-(4-chlorophenyl)-2-(3,6-dihydro-2H-pyran-4-yl)-5-(3-(fluoromethyl)-8-methyl-[1,2,4]triazolo[4,3-a]pyridin-6-yl)-1-isopropyl-5,6-dihydropyrrolo[3,4-d]imidazol-4(1H)-one] | 23.7 nM | 39.85 nM | 39 nM | 15000 nM | 172 nM | >10000 nM | 43 nM | 75 nM | 42.8 nM | 112.1 nM |
| COc1ncccc1-c1nc2c(n1C(C)C)C(c1ccc(Cl)cc1)N(c1cc(C)c3nnc(CF)n3c1)C2=O (centres unmarked) [Example 89, 6-(4-chlorophenyl)-5-(3-(fluoromethyl)-8-methyl-[1,2,4]triazolo[4,3-a]pyridin-6-yl)-1-isopropyl-2-(2-methoxypyridin-3-yl)-5,6-dihydropyrrolo[3,4-d]imidazol-4(1H)-one] | 10.3 nM | 20.8 nM | 15 nM | 8350 nM | 63.6 nM | >10000 nM | 13 nM | 35 nM | 14.9 nM | 40.45 nM |
| Cc1cc(N2C(=O)c3nc(C4=CC(C)(C)NC(C)(C)C4)n(C(C)C)c3C2c2ccc(Cl)cc2)cn2c(CF)nnc12 (centres unmarked) [Example 90, 6-(4-chlorophenyl)-5-(3-(fluoromethyl)-8-methyl-[1,2,4]triazolo[4,3-a]pyridin-6-yl)-1-isopropyl-2-(2,2,6,6-tetramethyl-1,2,3,6-tetrahydropyridin-4-yl)-5,6-dihydropyrrolo[3,4-d]imidazol-4(1H)-one] | 16.2 nM | 31.75 nM | 30 nM | 13100 nM | 270 nM | >10000 nM | 37 nM | 67 nM | 82.8 nM | 271 nM |
| Cc1cc(N2C(=O)c3nc(C4=CCCN(C)C4)n(C(C)C)c3C2c2ccc(Cl)cc2)cn2c(CF)nnc12 (centres unmarked) [Example 91] | 27.4 nM | 63.7 nM | 34.5 nM | 17500 nM | 353 nM | >10000 nM | 45 nM | 95 nM | 122 nM | 334 nM |
| Cc1cc(N2C(=O)c3nc(C4=CCOC4)n(C(C)C)c3C2c2ccc(Cl)cc2)cn2c(CF)nnc12 (centres unmarked) [Example 92, 6-(4-chlorophenyl)-2-(2,5-dihydrofuran-3-yl)-5-(3-(fluoromethyl)-8-methyl-[1,2,4]triazolo[4,3-a]pyridin-6-yl)-1-isopropyl-5,6-dihydropyrrolo[3,4-d]imidazol-4(1H)-one] | 15.3 nM | 33.65 nM | < 11 nM | 5800 nM | 110 nM | >10000 nM | 27 nM | 27 nM | 23.9 nM | 78.4 nM |
